# PubChem BioAssay AID2060506 (Molecular Pharmacology Branch, DTP, NCI, 2025)
# System: 598228-144-R-J1-PDC complex spheroid viability
# Assay: Anticancer human tumor 598228-144-R-J1-PDC patient-derived serous endometrial adenocarcinoma cell line growth inhibition [GQUAD]
# Conditions: for IC50: curve of first compound; for viability, T/C: stronger effect = lower value
# How it was run: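 Multi-cell-type spheroids of tumor cells with HUVEC and mesenchymal stem cells, treated with drug combinations. Concentrations descend in half-log steps from near clinical Cmax, or from 10 microM where Cmax is unknown; viability read-out.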
# [1] = second compound 0.0316 µM, first compound 0.0316 µM
# [2] = second compound 0.0316 µM, first compound 0.1 µM
# [3] = second compound 0.0316 µM, first compound 0.316 µM
# [4] = second compound 0.0316 µM, first compound 1 µM
# [5] = second compound 0.0316 µM, first compound 3.16 µM
# [6] = second compound 0.0316 µM, first compound 10 µM
# [7] = second compound 0.1 µM, first compound 0.0316 µM
# [8] = second compound 0.1 µM, first compound 0.1 µM
# [9] = second compound 0.1 µM, first compound 0.316 µM
# [10] = second compound 0.1 µM, first compound 1 µM
# [11] = second compound 0.1 µM, first compound 3.16 µM
# [12] = second compound 0.1 µM, first compound 10 µM
# [13] = second compound 0.316 µM, first compound 0.0316 µM
# [14] = second compound 0.316 µM, first compound 0.1 µM
# [15] = second compound 0.316 µM, first compound 0.316 µM
# [16] = second compound 0.316 µM, first compound 1 µM
# [17] = second compound 0.316 µM, first compound 3.16 µM
# [18] = second compound 0.316 µM, first compound 10 µM
# [19] = second compound 1 µM, first compound 0.0316 µM
# [20] = second compound 1 µM, first compound 0.1 µM
# [21] = second compound 1 µM, first compound 0.316 µM
# [22] = second compound 1 µM, first compound 1 µM
# [23] = second compound 1 µM, first compound 3.16 µM
# [24] = second compound 1 µM, first compound 10 µM
# [25] = second compound 3.16 µM, first compound 0.0316 µM
# [26] = second compound 3.16 µM, first compound 0.1 µM
# [27] = second compound 3.16 µM, first compound 0.316 µM
# [28] = second compound 3.16 µM, first compound 1 µM
# [29] = second compound 3.16 µM, first compound 3.16 µM
# [30] = second compound 3.16 µM, first compound 10 µM
# [31] = second compound 10 µM, first compound 0.0316 µM
# [32] = second compound 10 µM, first compound 0.1 µM
# [33] = second compound 10 µM, first compound 0.316 µM
# [34] = second compound 10 µM, first compound 1 µM
# [35] = second compound 10 µM, first compound 3.16 µM
# [36] = second compound 10 µM, first compound 10 µM
# 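Also: spheroids exposed to the agents for one week before reading.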
# 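For viability, T/C in this document: percent of vehicle DMSO control viability so 100% = untreated growth.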
smiles,measurement,setting,value
CC(C)(O)C1CCC(Nc2ccc3ncc(-c4cccc(C(F)(F)F)c4)n3n2)CC1 (centres undefined) + CN(C)c1ccc(Nc2c3ccc(NC(=O)CCN4CCCC4)cc3nc3cc(NC(=O)CCN4CCCC4)ccc23)cc1,IC50,second compound 0.0316 µM,1.86 µM
same,IC50,second compound 0.1 µM,1.91 µM
same,IC50,second compound 0.316 µM,2.1 µM
same,IC50,second compound 1 µM,1.89 µM
same,IC50,second compound 3.16 µM,1.97 µM
same,IC50,second compound 10 µM,1.81 µM
same,"viability, T/C",[1],112%
same,"viability, T/C",[2],95.7%
same,"viability, T/C",[3],79.2%
same,"viability, T/C",[4],78.5%
same,"viability, T/C",[5],25.1%
same,"viability, T/C",[6],27.3%
same,"viability, T/C",[7],96.3%
same,"viability, T/C",[8],99%
same,"viability, T/C",[9],112%
same,"viability, T/C",[10],81.4%
same,"viability, T/C",[11],26.6%
same,"viability, T/C",[12],24.1%
same,"viability, T/C",[13],98.9%
same,"viability, T/C",[14],87.8%
same,"viability, T/C",[15],112%
same,"viability, T/C",[16],85.3%
same,"viability, T/C",[17],31%
same,"viability, T/C",[18],24.1%
same,"viability, T/C",[19],101%
same,"viability, T/C",[20],87.9%
same,"viability, T/C",[21],128%
same,"viability, T/C",[22],79%
same,"viability, T/C",[23],29.5%
same,"viability, T/C",[24],23.4%
same,"viability, T/C",[25],110%
same,"viability, T/C",[26],104%
same,"viability, T/C",[27],107%
same,"viability, T/C",[28],89.1%
same,"viability, T/C",[29],22.6%
same,"viability, T/C",[30],21.8%
same,"viability, T/C",[31],93.3%
same,"viability, T/C",[32],75.3%
same,"viability, T/C",[33],81.7%
same,"viability, T/C",[34],76.6%
same,"viability, T/C",[35],24.8%
same,"viability, T/C",[36],16.6%
O=C(NO)c1cnc(N2CCN(S(=O)(=O)c3ccc4ccccc4c3)CC2)nc1 + CN(C)c1ccc(Nc2c3ccc(NC(=O)CCN4CCCC4)cc3nc3cc(NC(=O)CCN4CCCC4)ccc23)cc1,IC50,second compound 0.0316 µM,0.0729 µM
same,IC50,second compound 0.1 µM,0.104 µM
same,IC50,second compound 0.316 µM,0.1 µM
same,IC50,second compound 1 µM,0.125 µM
same,IC50,second compound 3.16 µM,0.0832 µM
same,IC50,second compound 10 µM,0.0526 µM
same,"viability, T/C",[1],79.4%
same,"viability, T/C",[2],35.2%
same,"viability, T/C",[3],26.3%
same,"viability, T/C",[4],0.43%
same,"viability, T/C",[5],0.48%
same,"viability, T/C",[6],0.27%
same,"viability, T/C",[7],87.8%
same,"viability, T/C",[8],49.5%
same,"viability, T/C",[9],24%
same,"viability, T/C",[10],0.39%
same,"viability, T/C",[11],0.39%
same,"viability, T/C",[12],0.25%
same,"viability, T/C",[13],81.3%
same,"viability, T/C",[14],49.5%
same,"viability, T/C",[15],18.3%
same,"viability, T/C",[16],0.5%
same,"viability, T/C",[17],0.26%
same,"viability, T/C",[18],0.42%
same,"viability, T/C",[19],92.3%
same,"viability, T/C",[20],56.6%
same,"viability, T/C",[21],21.2%
same,"viability, T/C",[22],0.43%
same,"viability, T/C",[23],0.22%
same,"viability, T/C",[24],0.38%
same,"viability, T/C",[25],108%
same,"viability, T/C",[26],38.9%
same,"viability, T/C",[27],8.39%
same,"viability, T/C",[28],0.37%
same,"viability, T/C",[29],0.29%
same,"viability, T/C",[30],0.29%
same,"viability, T/C",[31],73.7%
same,"viability, T/C",[32],19.8%
same,"viability, T/C",[33],5.5%
same,"viability, T/C",[34],0.39%
same,"viability, T/C",[35],0.39%
same,"viability, T/C",[36],0.34%
